{"source": "ChEMBL document CHEMBL1149159", "about": "“Structure-activity relationship of purine ribonucleosides for inhibition of hepatitis C virus RNA-dependent RNA polymerase” (J Med Chem, 2004)", "target": "RNA-directed RNA polymerase (Hepacivirus hominis, UniProt O39930)", "sequence (O39930 whole entry)": "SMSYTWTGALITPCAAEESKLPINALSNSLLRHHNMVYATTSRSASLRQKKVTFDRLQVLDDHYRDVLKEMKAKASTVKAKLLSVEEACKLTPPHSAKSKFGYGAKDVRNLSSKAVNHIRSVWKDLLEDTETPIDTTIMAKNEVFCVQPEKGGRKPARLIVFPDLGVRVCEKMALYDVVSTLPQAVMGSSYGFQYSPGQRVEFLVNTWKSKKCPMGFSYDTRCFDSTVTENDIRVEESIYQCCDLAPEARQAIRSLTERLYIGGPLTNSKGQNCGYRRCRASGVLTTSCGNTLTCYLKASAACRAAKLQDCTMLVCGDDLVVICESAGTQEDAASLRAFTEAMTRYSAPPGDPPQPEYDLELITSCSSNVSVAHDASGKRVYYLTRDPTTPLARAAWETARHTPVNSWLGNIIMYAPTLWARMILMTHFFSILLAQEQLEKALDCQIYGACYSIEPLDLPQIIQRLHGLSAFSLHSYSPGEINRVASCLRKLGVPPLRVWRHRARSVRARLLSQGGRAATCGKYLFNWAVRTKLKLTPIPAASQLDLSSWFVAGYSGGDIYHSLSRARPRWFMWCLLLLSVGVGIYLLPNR", "assay": "Inhibition HCV NS5B-mediated RNA synthesis", "format": "functional", "data": [{"smiles": "CC[C@@]1(O)[C@H](O)[C@@H](CO)O[C@H]1n1cnc2c(N)ncnc21", "values": [{"measurement": "IC50", "value": "> 50", "unit": "µM"}]}, {"smiles": "C[C@@]1(O)[C@@H](CO)O[C@@H](n2cnc3c(N)ncnc32)[C@@H]1O", "values": [{"measurement": "IC50", "value": "> 50", "unit": "µM"}]}, {"smiles": "C[C@@]1(O)[C@H](O)[C@@H](CO)O[C@H]1n1cnc2c(N)ncnc21", "values": [{"measurement": "IC50", "value": 1.9, "unit": "µM"}]}, {"smiles": "Nc1nc2c(ncn2[C@@H]2O[C@H](CO)[C@@H](F)[C@H]2O)c(=O)[nH]1", "values": [{"measurement": "IC50", "value": 1.8, "unit": "µM"}]}, {"smiles": "Nc1ncnc2c1ncn2[C@@H]1O[C@H](CO)[C@@H](O)[C@H]1F", "note": "[2'-BETA-FLUORO-2',3'-DEOXYADENOSINE]", "values": [{"measurement": "IC50", "value": "> 50", "unit": "µM"}]}, {"smiles": "C[C@]1(O)[C@H](O)[C@@H](CO)O[C@H]1n1cnc2c(N)ncnc21", "values": [{"measurement": "IC50", "value": "> 50", "unit": "µM"}]}, {"smiles": "C[C@@]1(O)[C@H](O)[C@@H](CO)O[C@H]1n1cnc2c(=O)[nH]cnc21", "values": [{"measurement": "IC50", "value": 4, "unit": "µM"}]}, {"smiles": "C[C@@]1(O)[C@H](O)[C@@H](CO)O[C@H]1n1cnc2c(N)nc(N)nc21", "values": [{"measurement": "IC50", "value": 2.6, "unit": "µM"}]}, {"smiles": "Nc1nc2c(ncn2[C@@H]2O[C@H](CO)C(O)[C@H]2O)c(=O)[nH]1", "note": "(single isomer, unassigned)", "values": [{"measurement": "IC50", "value": 20, "unit": "µM"}]}, {"smiles": "Nc1ncnc2c1ncn2[C@@H]1O[C@H](CO)[C@@H](F)[C@H]1O", "values": [{"measurement": "IC50", "value": 28, "unit": "µM"}]}, {"smiles": "C[C@]1(O)[C@@H](CO)O[C@@H](n2cnc3c(N)ncnc32)[C@@H]1O", "values": [{"measurement": "IC50", "value": "> 50", "unit": "µM"}]}, {"smiles": "Nc1ncnc2c1ncn2[C@@H]1O[C@H](CO)[C@@H](O)[C@@H]1O", "note": "[VIDARABINE]", "values": [{"measurement": "IC50", "value": 50, "unit": "µM"}]}, {"smiles": "Nc1ncnc2c1ncn2[C@@H]1O[C@H](CO)C[C@H]1O", "note": "[CORDYCEPIN]", "values": [{"measurement": "IC50", "value": 22, "unit": "µM"}]}, {"smiles": "C[C@@]1(O)[C@H](O)[C@@H](CO)O[C@H]1n1cnc2c(=O)[nH]c(N)nc21", "note": "[2'-B-METHYL-GUANOSINE]", "values": [{"measurement": "IC50", "value": 0.13, "unit": "µM"}]}, {"smiles": "C[C@@]1(O)[C@H](O)[C@@H](CO)O[C@H]1n1cnc2cnc(N)nc21", "values": [{"measurement": "IC50", "value": 46, "unit": "µM"}]}, {"smiles": "CO[C@]1(C)[C@H](O)[C@@H](CO)O[C@H]1n1cnc2c(N)ncnc21", "values": [{"measurement": "IC50", "value": "> 50", "unit": "µM"}]}, {"smiles": "Nc1nc2c(ncn2[C@@H]2O[C@H](CO)C[C@H]2O)c(=O)[nH]1", "values": [{"measurement": "IC50", "value": 0.6, "unit": "µM"}]}, {"smiles": "CO[C@@H]1[C@H](O)[C@@H](CO)O[C@H]1n1cnc2c(=O)[nH]c(N)nc21", "values": [{"measurement": "IC50", "value": 1.6, "unit": "µM"}]}, {"smiles": "CO[C@@H]1[C@H](O)[C@@H](CO)O[C@H]1n1cnc2c(N)ncnc21", "values": [{"measurement": "IC50", "value": 47, "unit": "µM"}]}]}
